Read-outs that look alike come from different tables or passages of the source. One block for each compound: values may come before it.
Key:
[1] = target: T1, epithelial amiloride-sensitive sodium channel (ENaC) (Homo sapiens, UniProt P37088+P51168+P51170); assay type: cell-based; details: 1 μM or 100 μM, 90 min
T1 sequence (P37088 1-669): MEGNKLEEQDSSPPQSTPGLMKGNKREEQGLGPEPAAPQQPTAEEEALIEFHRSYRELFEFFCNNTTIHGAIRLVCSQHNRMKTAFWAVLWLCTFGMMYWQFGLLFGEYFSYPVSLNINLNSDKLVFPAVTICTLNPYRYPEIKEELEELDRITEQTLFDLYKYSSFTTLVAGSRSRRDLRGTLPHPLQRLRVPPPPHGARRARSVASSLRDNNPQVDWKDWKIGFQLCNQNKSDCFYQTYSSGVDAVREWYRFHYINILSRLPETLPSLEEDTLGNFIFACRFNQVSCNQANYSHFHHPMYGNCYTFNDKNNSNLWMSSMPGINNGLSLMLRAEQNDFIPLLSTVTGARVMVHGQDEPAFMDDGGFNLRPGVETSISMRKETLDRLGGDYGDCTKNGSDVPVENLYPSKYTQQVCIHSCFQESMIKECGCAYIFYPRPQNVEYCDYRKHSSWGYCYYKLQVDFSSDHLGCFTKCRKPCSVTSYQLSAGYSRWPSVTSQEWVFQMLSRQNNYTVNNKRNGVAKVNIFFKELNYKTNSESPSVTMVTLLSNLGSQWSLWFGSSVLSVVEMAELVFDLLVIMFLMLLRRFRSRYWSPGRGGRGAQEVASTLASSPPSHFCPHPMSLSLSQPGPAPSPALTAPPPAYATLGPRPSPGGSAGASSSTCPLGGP
T1 sequence (P51168 1-640): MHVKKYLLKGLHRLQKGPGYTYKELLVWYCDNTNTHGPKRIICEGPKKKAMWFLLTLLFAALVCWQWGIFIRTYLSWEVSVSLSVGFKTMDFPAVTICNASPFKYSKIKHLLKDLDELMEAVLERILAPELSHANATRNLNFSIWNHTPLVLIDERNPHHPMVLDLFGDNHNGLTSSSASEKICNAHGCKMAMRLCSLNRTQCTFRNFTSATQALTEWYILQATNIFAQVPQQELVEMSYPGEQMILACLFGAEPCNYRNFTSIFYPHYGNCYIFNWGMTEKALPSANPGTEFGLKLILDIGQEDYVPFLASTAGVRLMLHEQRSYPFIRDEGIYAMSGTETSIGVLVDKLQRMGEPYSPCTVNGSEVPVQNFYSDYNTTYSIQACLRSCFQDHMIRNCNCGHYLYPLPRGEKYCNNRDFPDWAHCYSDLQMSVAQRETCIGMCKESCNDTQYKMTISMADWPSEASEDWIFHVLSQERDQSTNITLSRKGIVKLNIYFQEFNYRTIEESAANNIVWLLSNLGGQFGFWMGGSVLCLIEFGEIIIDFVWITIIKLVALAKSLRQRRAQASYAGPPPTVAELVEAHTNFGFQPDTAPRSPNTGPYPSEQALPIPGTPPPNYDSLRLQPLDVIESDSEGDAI
T1 sequence (P51170 1-649): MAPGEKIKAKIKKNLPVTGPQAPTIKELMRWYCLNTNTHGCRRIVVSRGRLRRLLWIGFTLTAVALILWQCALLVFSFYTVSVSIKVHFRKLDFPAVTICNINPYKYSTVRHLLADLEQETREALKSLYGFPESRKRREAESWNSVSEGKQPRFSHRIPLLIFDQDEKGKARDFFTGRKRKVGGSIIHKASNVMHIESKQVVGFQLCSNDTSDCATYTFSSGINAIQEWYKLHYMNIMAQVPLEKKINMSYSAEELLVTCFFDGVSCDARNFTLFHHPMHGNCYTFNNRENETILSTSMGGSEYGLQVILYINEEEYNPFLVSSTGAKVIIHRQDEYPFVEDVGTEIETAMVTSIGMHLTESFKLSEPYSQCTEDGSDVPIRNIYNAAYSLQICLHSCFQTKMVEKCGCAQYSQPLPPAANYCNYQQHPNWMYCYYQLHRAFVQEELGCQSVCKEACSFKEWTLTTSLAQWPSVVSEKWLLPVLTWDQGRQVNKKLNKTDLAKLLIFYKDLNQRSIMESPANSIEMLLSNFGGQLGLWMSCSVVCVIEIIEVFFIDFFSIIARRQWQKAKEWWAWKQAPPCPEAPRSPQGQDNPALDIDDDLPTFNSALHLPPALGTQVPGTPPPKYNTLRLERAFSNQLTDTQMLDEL
Experimental: (§1) Human bronchial epithelial (HBE) cells were purchased from Cambrex Bioscience Ltd, UK., and were stored frozen in liquid nitrogen until required for use.
(§2) HBE cells were amplified by growing in secondary culture according to the suppliers' instructions. Cells were seeded at densities of between 3,000 to 4,000/cm^2 in plastic T-25 culture flasks in bronchial epithelial cell growth medium (BEGM) prepared from bronchial epithelial basal medium (BEBM, Cambrex, UK) supplemented with bovine pituitary extract, hydrocortisone, human epidermal growth factor, epinephrine, transferrin, insulin, retinoic acid, triiodothyronine, gentamicin, and amphotericin B. Cultures were maintained at 37° C. in 5% CO2 in a humidified incubator. Medium was changed every 1 to 3 days until cells were approximately 90% confluent. Cells were then passaged with trypsin EDTA according to the suppliers' instructions, and either used for further cell cultures, or cryopreserved in liquid nitrogen in BEGM containing 10% foetal bovine serum and 10% DMSO.
(§3) HBE cells were prepared for electrophysiology studies by growing as tertiary cultures on Snapwell (Corning) 0.4μ clear polyester membrane inserts 1.2 cm^2 coated with collagen IV (Sigma). Cells were seeded at approximately 10^5/cm^2 in 0.5 ml 1:1 DMEM (Cambrex, UK) BEGM containing bovine pituitary extract (50 μg/ml), hydrocortisone (0.5 μg/ml), human epidermal growth factor (0.5 ng/ml), epinephrine (0.5 μg/ml), transferrin (10 μg/ml), insulin (5 μg/ml), retinoic acid (50 nM), and gentamicin (50 μg/ml) (Danahay medium; Danahay et al. 2002). Snapwell inserts were mounted in 6-well plates with 3 ml Danahay medium in the wells, and grown at 37° C. in 5% CO2 in a humidified incubator. Medium was changed every 1 to 3 days. An apical air-liquid interface (ALI) was established as the cells achieved confluence (3 to 6 days) by removal of medium from the centre of the insert. Confluent differentiated bronchial epithelial cells were used for electrophysiology studies at between 15 and 29 days after establishing ALI.
(§4) Differentiated HBE cells grown to confluence at an air-liquid interface for 15 to 29 days were used to study substances for ability to achieve long duration down regulation of the epithelial amiloride-sensitive sodium channel (ENaC).
(§5) Step 1: Treatment with substance. For each group of cells treated with a substance, 30 μl of 100 times final concentration of substance was added to the 3 ml basolateral culture medium, mixed and 150 μl of the resultant basolateral fluid was transferred to the apical surface for 5 min. For non-treatment control groups of basolateral fluid with no added substance was transferred to the apical surface. After 5 min. equilibration the excess apical fluid was then transferred back to the basolateral side of the culture well.
(§6) Step 2: Variable period of incubation with the substance. Dependent on the individual experiment the cells were returned to the 37° C. incubator for periods of 0 min. to 120 min.
(§7) Step 3: Period of substance washout with fresh culture medium. For experiments to study the duration of a substance response the HBE cells on Snapwell inserts were washed with fresh culture medium (no added substance) at 37° C. and placed in fresh 6-well plates containing 3 ml fresh culture medium (no added substance) on the basolateral side. […] Step 3 was omitted in studies where the duration of the substance response was not investigated.
(§8) Step 4: Wash with Krebs-Ringer buffer and assembly in Ussing chambers. The Snapwell insert cultures of HBE cells were removed from the 6-well plates and washed with excess Krebs-Ringer buffer (120 mM-NaCl, 25 mM-NaHCO3, 3.3 mM-KH2PO4, 0.8 mM-K2HPO4, 1.2 mM-CaCl2, 1.2 mM-MgCl2, 10 mM-glucose) pH7.4 at 37° C. The inserts were then mounted in Ussing chambers (Snapwell diffusion chambers, Costar UK Ltd.). Each side of the chamber was filled with 5 ml Krebs-Ringer buffer and gassed continuously with 95% O2/5% CO2 at 37° C. […]

[2] = tested on: cortical collecting duct of the rabbit kidney; details: perfused; Muto et al. 1994; cited from earlier work
[3] = target: T2, epithelial amiloride-sensitive sodium channel (ENaC) (Homo sapiens, UniProt P37088+P51168+P51170); assay type: cell-based
T2 construct: Differentiated HBE cells grown to confluence at an air-liquid interface for 15 to 29 days were used; host or cells: primary human bronchial epithelial (HBE) cells, differentiated at air-liquid interface
Experimental: as §1, §2, §3, §4, §5, §6, §7, §8

[4] = tested on: nasal epithelium; experiment: Mucus host-defence responses during nasal perfusion; assay type: in vivo, human; details: perfusion with 10^−5 M in low chloride Ringer/HEPES buffer
Description: Perfusion of the nasal epithelium with low chloride Ringer/HEPES buffer imposes a chemical gradient for chloride secretion, and therefore also provides a drive for fluid secretion.
Mucus host-defence episodes were scored 1 to 3 on the basis of the number of features and the magnitude of the responses observed. FIG. 10 reports the score of the episodes recorded, and indicates the time of their occurrence in the perfusion protocol.

[5] = tested on: amiloride-sensitive (sodium-dependent) component of nasal PD; experiment: Nasal PD measurement during perfusion of human nasal epithelium; assay type: in vivo; details: perfusion with 10^−5 M-amiloride
Experimental: The method of measurement of nasal PD was an adaptation of that described by Standaert et al. (2004).
Ringer/HEPES buffer solution was prepared containing 148 mM-NaCl, 4.05 mM-KCl, 1.2 mM-CaCl2, 1.2 mM-MgCl2, 2.4 mM-K2HPO4, 0.4 mM-KH2PO4, 10 mM-HEPES, and adjusted to pH 7.4. Low chloride Ringer/HEPES buffer solution was prepared by replacing NaCl with 148 mM-Na gluconate in the Ringer solution components.
Agar electrodes were prepared with 3.7% agarose dissolved in Ringer/HEPES buffer pH 7.4. The reference electrode was placed and taped in contact with a small area on the forearm where the epidermis had been removed by gentle abrasion. A dual lumen nasal recording electrode was prepared using a lm length of soft plastic tubing 2.4 mm diameter, into which 1 mm diameter polythene tubing was inserted through the wall and along the lumen for 15 cm from one end. The 2.4 mm diameter tubing was filled with 3.7% agarose dissolved in Ringer/HEPES buffer pH 7.4. The 1 mm diameter tubing was used for perfusion of buffer solutions and drugs to the nasal epithelium. The ends of the agar electrodes were each placed in contact with a calomel half-cell in 3 M-KCl solution. Voltages were measured by connecting the calomel electrodes to a high impedance voltmeter (Keithley 617 programmable electrometer). Output from the voltmeter was recorded by connection to a Biopac MP100 data aquisition unit and PC running Acqknowledge III data acquisition software.
Nasal PD was recorded via the recording electrode placed in contact with the nasal epithelium approximately 4 cm inside the nostril. The nasal epithelium was perfused according to the following schedule and nasal PD was recorded continuously.
1. Ringer/HEPES buffer was perfused at 0.5 ml/min for 5 min, and starting baseline PD was recorded.
2. Perfusion was then switched to low chloride Ringer/HEPES buffer pH 7.4 for 30 min during which time initial hyperpolarisation of the epithelium occurred.
3. The nasal epithelium was then perfused with 10^−5 M-amiloride in low chloride Ringer/HEPES buffer pH 7.4 for 10 min. Measurement of the amiloride-sensitive (sodium-dependent) component of nasal PD was then made by measuring the difference between the average PD recorded over the 2 min before perfusion with amiloride and the average PD recorded in the period 4 to 6 min after perfusion with amiloride.
4. Amiloride was washed away from the nasal epithelium by perfusion with low chloride Ringer/HEPES buffer pH 7.4 for 30 min.
5. Steps 3 and 4 were then repeated twice more.
6. The nasal epithelium was then perfused with 3 μM 6-amidino-2-napthyl 4-guanidinobenzoate in low chloride Ringer/HEPES buffer pH 7.4 for 60 min.
7. Steps 3 and 4 were then repeated a further twice, followed by either a period of administration of amiloride (3 experiments), or a final repetition of both steps 3 and 4 (1 experiment).
Over the 5 h time course of each experiment nasal PD drifted and oscillated. […] Changes in nasal PD caused by perfusion of amiloride were calculated as the difference between the mean PD recorded in the 2 min period before perfusion with amiloride and the mean PD recorded in the plateau period 4 to 6 min after start of perfusion with amiloride. Within each experiment the change in nasal PD at each period of application of amiloride was expressed as a percentage of the maximum change observed in the experiment.

[6] = target: T3, ENaC (Homo sapiens, UniProt P37088+P51168+P51170); details: same range as 50% to 70% of amiloride inhibition; Bridges et al. 2001; cited from earlier work
T3 construct: Treatment of airway epithelial cells with BAY 39-9437 results in reduction of ENaC activity; host or cells: airway epithelial cells (Bridges et al 2001)
T3 sequence (P37088 1-669): T1 sequence (P37088 1-669)
T3 sequence (P51168 1-640): T1 sequence (P51168 1-640)
T3 sequence (P51170 1-649): T1 sequence (P51170 1-649)

- amiloride ΔIsc compared to control ([1]; HBE 34 & 35 d, 28 & 29 d ALI (FIG. 8B)): not significantly different
Compound: N=C(N)c1ccc2cc(O)ccc2c1 [AN, 6-amidino-2-naphthol]
- minimum effective concentration [2]: 10^−4 M

Compound: N=C(N)NC(=O)c1nc(Cl)c(N)nc1N [amiloride]
- ΔIsc (amiloride addition) ([3]; 10 μM amiloride apical, HBE cells 24 d in culture, 21 d ALI, FIG. 1): 9.2 μAmp
- time for short circuit current to fall to new plateau after application of amiloride ([3]; 10 μM-amiloride, apical surface): ≤ 2 min
- mucus host-defence responses [4]: stimulated episodes of mucus host-defence responses
- time at which partial depolarisation of nasal epithelium was observable [5]: ≤ 2 min

- amiloride ΔIsc compared to control ([1]; HBE 22 d, 17 d ALI (FIG. 8A)): not significantly different
Compound: N=C(N)Nc1ccc(C(=O)O)cc1 [pGBA, p-guanidinobenzoic acid]
- minimum effective concentration [2]: 10^−5 M

Compound: aprotinin
- efficacy compared with high dose amiloride [6]: same range
